Assay results published in patent publication US10154976B2, “System and method for delivering protease inhibitors” (Bordoloi Biotech, LLC, priority 2013, dated 2018).
One block for each compound: values may come before it.

Legend:
fibrin clot = assay: Fibrin clot weight in a medium containing no plasmin (PBS only); set-up: species or system Bovine; conditions: 3 percent Ca-TA but without any plasmin; by Day-3 and Day-4
Procedure: Incubated at 37 C. […] Repeated till the clots completely disappeared.

plasmin [1] = target: T1, plasmin (Homo sapiens, UniProt P00747); assay: Gravimetric fibrin clot degradation by plasmin, single 48 hour incubation; assay type: biochemical; set-up: TA delays the conversion of plasminogen to plasmin; purchased Sigma P1867
plasmin [2] = target: T1, plasmin; assay: Gravimetric fibrin clot degradation in plasmin medium freshly exchanged every 24 hours;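 also: fibrin clots formed from bovine fibrinogen and thrombin in 96-well plates, weighed each day after plasmin exposure, percent degradation relative to original clot weight, with PBS-only no-plasmin controls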
Procedure: Also, a gravimetric in vitro method has been developed for a degradation study of a fibrin sealant in a plasmin medium at pH 7.4 and 37° C., where the medium has been freshly exchanged every twenty-four hours. Further investigation into the described degradation of fibrin sealant was undertaken for up to four consecutive days.
A preparation of fibrinogen solution was prepared as described herein: • 1. Prepared a 10 percent solution of fibrinogen by dissolving 1.4 gms of bovine fibrinogen (Sigma F8630) in 14 ml of PBS. The solution was incubated at 37° C. with occasional swirling for 1 hour or till fibrinogen is completely dissolved. • 2. Molecular weight of TA is 157 grams. Three and half millimolar (0.55 mg TA/ml) suspension of 5 percent and 30 percent TA/PLGA were prepared by dispersing 50 mg of 5 percent loaded TA/PLGA and 8.3 mg of 30 percent loaded TA/PLGA in 4.5 ml of 10 percent fibrinogen solution, respectively, Table 7. A 10 percent Fibrinogen solution without TA was used as the negative control.
Next, the fibrin clots in the ninety-six well plate were prepared as follows: • 1. Two and a half mg of Thrombin (600 units/mg) were dissolved in 1 ml of 375 mM CaCl2 solution in PBS (1500 U/ml). Seven microliters (10.5 U) were added to each well of the labeled 96 well plates. • 3. The fibrinogen solutions (with no TA/PLGA that is 0 percent, 5 percent loaded TA/PLGA and 30 percent loaded TA/PLGA) were mixed well and 100 microliter aliquots of 10 percent fibrinogen with or without TA/PLGA were added to the wells containing thrombin solution. […] The plates were incubated at 37° C. temperature for one hour. Final concentration of CaCl2 was 25 mM. The plate was stored at 4° C. overnight after the clot was formed.
Next, plasmin was added to the fibrin clots to begin the enzymatic degradation of the fibrin clots by plasmin as described herein: • 1. A 300× plasmin solution was prepared by dissolving 500 micrograms in 500 microliter PBS. A 2× stock was prepared by diluting 150 times in PBS and adding 100 microliters to each well of the 96 well plate. The final 1× concentration was 3.3 micrograms/ml in the solution. A no-plasmin PBS only control was used for each condition. • 2. Incubation was at 37° C. At every 24 hours, the 96 well plate was centrifuged at 1,000 rpm for five minutes at room temperature. The supernatant plasmin solutions were aspirated out from each well with micropipette leaving the clots at the bottom of the well. • 3. A set of fibrin clots for each condition each day were taken out for measuring their degradation by plasmin by weighing. Fresh 100 microliter of plasmin solution was added to the rest of the clots. Fibrin clots were removed for measuring their weights each day until the clots were completely degraded in the wells.
Data was collected as follows: • 1. The clots were picked up from the well with a pair of forceps and weighed. The percent degradation was calculated by 100−(Average wt of the plasmin treated clot/actual weight of the clot×100). • 2. The clots were placed on a glass slide and photographed.
The clot or sealant was exchanged with fresh plasmin solution of 3.3 micrograms/ml every 24 hours.
The clots were irrigated and exchanged with fresh plasmin solution of 3.3 micrograms/ml every 24 hours.

[3] = Day 0, 3 percent Ca-TA (169.5 mE, 30 mg/ml), no PLGA, plasmin 3.3 μg/ml exchanged every 24 hours, pH 7.4, 37° C.
[4] = Day 1, 3 percent Ca-TA, no PLGA, plasmin 3.3 μg/ml exchanged every 24 hours, pH 7.4, 37° C.
[5] = Day 2, 3 percent Ca-TA, no PLGA, plasmin 3.3 μg/ml exchanged every 24 hours, pH 7.4, 37° C.
[6] = Day 3, 3 percent Ca-TA, no PLGA, plasmin 3.3 μg/ml exchanged every 24 hours, pH 7.4, 37° C.
[7] = Day 4, 3 percent Ca-TA, no PLGA, plasmin 3.3 μg/ml exchanged every 24 hours, pH 7.4, 37° C.
[8] = TA 0.10 mM, plasmin 6.6 μg/ml, 37° C., 48 hours
[9] = TA 0.25 mM, plasmin 6.6 μg/ml, 37° C., 48 hours
[10] = TA 0.50 mM, plasmin 6.6 μg/ml, 37° C., 48 hours
[11] = TA 1.00 mM, plasmin 6.6 μg/ml, 37° C., 48 hours
[12] = Day 0, Aprotinin 1500 KIU without PLGA-2, plasmin 3.3 micrograms/ml fresh every 24 hours, 37 C
[13] = Day 1, Aprotinin 1500 KIU without PLGA-2, plasmin 3.3 micrograms/ml fresh every 24 hours, 37 C
[14] = Day 2, Aprotinin 1500 KIU without PLGA-2, plasmin 3.3 micrograms/ml fresh every 24 hours, 37 C
[15] = Day 3, Aprotinin 1500 KIU without PLGA-2, plasmin 3.3 micrograms/ml fresh every 24 hours, 37 C
[16] = Day 4, Aprotinin 1500 KIU without PLGA-2, plasmin 3.3 micrograms/ml fresh every 24 hours, 37 C

T1 sequence (P00747 97-580 limits assumed): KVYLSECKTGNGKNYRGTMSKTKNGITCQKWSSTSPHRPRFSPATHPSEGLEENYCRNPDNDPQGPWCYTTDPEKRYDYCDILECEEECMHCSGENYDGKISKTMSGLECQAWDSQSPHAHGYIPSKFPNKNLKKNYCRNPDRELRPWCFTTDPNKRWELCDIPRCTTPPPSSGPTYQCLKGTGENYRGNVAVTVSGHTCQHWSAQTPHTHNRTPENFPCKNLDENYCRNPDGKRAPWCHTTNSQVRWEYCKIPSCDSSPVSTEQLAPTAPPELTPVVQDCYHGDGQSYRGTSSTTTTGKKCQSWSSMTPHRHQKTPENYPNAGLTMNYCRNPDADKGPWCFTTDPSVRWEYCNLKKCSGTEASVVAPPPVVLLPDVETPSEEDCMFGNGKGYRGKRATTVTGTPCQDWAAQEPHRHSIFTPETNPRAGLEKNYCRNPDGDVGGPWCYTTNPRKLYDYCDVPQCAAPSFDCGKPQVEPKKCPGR
T1 sequence (P00747 581-810 limits assumed): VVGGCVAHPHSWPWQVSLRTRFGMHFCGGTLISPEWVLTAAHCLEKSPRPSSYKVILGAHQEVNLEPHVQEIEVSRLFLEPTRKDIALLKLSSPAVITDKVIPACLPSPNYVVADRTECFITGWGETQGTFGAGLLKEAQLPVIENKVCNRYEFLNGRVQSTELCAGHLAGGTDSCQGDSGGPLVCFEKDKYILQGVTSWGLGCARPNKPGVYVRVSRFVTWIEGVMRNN

concentration adequate to give a stable clot without any significant degradation (plasmin [1]; same manner as FIG. 5 with Ca-TA (FIG. 12)): about 0.1 mE
increase in volume or weight of clot, of its original weight (plasmin [2]; 3 percent Ca-TA, plasmin solution, on Day-1 and Day-2): more than 50%
Average Weight of fibrin clot (plasmin [2]; [3]): 113.0 mg
Fibrin clot weight, set A (plasmin [2]; [3]): 113 mg
Fibrin clot weight, set B (plasmin [2]; [3]): 113 mg
Fibrin clot weight, set C (plasmin [2]; [3]): 113 mg
percent degradation (plasmin [2]; [3]): 0%
Average Weight of fibrin clot (plasmin [2]; [4]): 179.7 mg
Fibrin clot weight, set A (plasmin [2]; [4]): 175 mg
Fibrin clot weight, set B (plasmin [2]; [4]): 160 mg
Fibrin clot weight, set C (plasmin [2]; [4]): 204 mg
Average Weight of fibrin clot (plasmin [2]; [5]): 185.0 mg
Fibrin clot weight, set A (plasmin [2]; [5]): 172 mg
Fibrin clot weight, set B (plasmin [2]; [5]): 174 mg
Fibrin clot weight, set C (plasmin [2]; [5]): 209 mg
Average Weight of fibrin clot (plasmin [2]; [6]): 123.3 mg
Fibrin clot weight, set A (plasmin [2]; [6]): 130 mg
Fibrin clot weight, set B (plasmin [2]; [6]): 100 mg
Fibrin clot weight, set C (plasmin [2]; [6]): 140 mg
Average Weight of fibrin clot (plasmin [2]; [7]): 0.0 mg
Fibrin clot weight, set A (plasmin [2]; [7]): 0 mg
Fibrin clot weight, set B (plasmin [2]; [7]): 0 mg
Fibrin clot weight, set C (plasmin [2]; [7]): 0 mg
percent degradation (plasmin [2]; [7]): 100%
Compound: NCC1CCC(C(=O)[O-])CC1.NCC1CCC(C(=O)[O-])CC1.[Ca+2] (stereo not drawn) [Ca-TA, Calcium Tranexamate]
increase in volume or weight of clot (fibrin clot): more than 50%

Average Weight of fibrin clot (plasmin [1]; [8]): 95.3 mg
Fibrin clot weight, set A (plasmin [1]; [8]): 96 mg
Fibrin clot weight, set B (plasmin [1]; [8]): 99 mg
Fibrin clot weight, set C (plasmin [1]; [8]): 91 mg
Percentage Degradation (plasmin [1]; [8]): 11.8%
Average Weight of fibrin clot (plasmin [1]; [9]): 98.0 mg
Fibrin clot weight, set A (plasmin [1]; [9]): 108 mg
Fibrin clot weight, set B (plasmin [1]; [9]): 104 mg
Fibrin clot weight, set C (plasmin [1]; [9]): 82 mg
Percentage Degradation (plasmin [1]; [9]): 9.3%
Average Weight of fibrin clot (plasmin [1]; [10]): 105.3 mg
Fibrin clot weight, set A (plasmin [1]; [10]): 102 mg
Fibrin clot weight, set B (plasmin [1]; [10]): 106 mg
Fibrin clot weight, set C (plasmin [1]; [10]): 108 mg
Percentage Degradation (plasmin [1]; [10]): 2.5%
Average Weight of fibrin clot (plasmin [1]; [11]): 104.7 mg
Fibrin clot weight, set A (plasmin [1]; [11]): 100 mg
Fibrin clot weight, set B (plasmin [1]; [11]): 108 mg
Fibrin clot weight, set C (plasmin [1]; [11]): 106 mg
Percentage Degradation (plasmin [1]; [11]): 3.0%
concentration sufficient for maximum activity (resistance against fibrin clot degradation by plasmin) (plasmin [1]; TA concentration, plasmin 6.6 μg/ml, 37° C., 48 hours): 0.1 mM
concentration sufficient for maximum activity, stated in ppm (plasmin [1]; plasmin 6.6 μg/ml, 37° C., 48 hours): 157 ppm
Compound: NC[C@H]1CC[C@H](C(=O)O)CC1 [TA, trans-4-aminomethyl-cyclohexane-1-carboxylic acid]

Average Weight of fibrin clot (plasmin [2]; [12]): 109.13 mg
Fibrin clot weight, set A (plasmin [2]; [12]): 109.30 mg
Fibrin clot weight, set B (plasmin [2]; [12]): 108.50 mg
Fibrin clot weight, set C (plasmin [2]; [12]): 109.60 mg
percent degradation (plasmin [2]; [12]): 0.00%
Average Weight of fibrin clot (plasmin [2]; [13]): 100.60 mg
Fibrin clot weight, set A (plasmin [2]; [13]): 100.20 mg
Fibrin clot weight, set B (plasmin [2]; [13]): 98.10 mg
Fibrin clot weight, set C (plasmin [2]; [13]): 103.50 mg
percent degradation (plasmin [2]; [13]): 7.82%
Average Weight of fibrin clot (plasmin [2]; [14]): 15.03 mg
Fibrin clot weight, set A (plasmin [2]; [14]): 14.60 mg
Fibrin clot weight, set B (plasmin [2]; [14]): 13.80 mg
Fibrin clot weight, set C (plasmin [2]; [14]): 16.70 mg
percent degradation (plasmin [2]; [14]): 86.22%
Average Weight of fibrin clot (plasmin [2]; [15]): 0.00 mg
Fibrin clot weight, set A (plasmin [2]; [15]): 0.00 mg
Fibrin clot weight, set B (plasmin [2]; [15]): 0.00 mg
Fibrin clot weight, set C (plasmin [2]; [15]): 0.00 mg
percent degradation (plasmin [2]; [15]): 100.00%
Average Weight of fibrin clot (plasmin [2]; [16]): 0.00 mg
Fibrin clot weight, set A (plasmin [2]; [16]): 0.00 mg
Fibrin clot weight, set B (plasmin [2]; [16]): 0.00 mg
Fibrin clot weight, set C (plasmin [2]; [16]): 0.00 mg
percent degradation (plasmin [2]; [16]): 100.00%
Compound: Aprotinin
